These results are taken from patent US9493537B2, “Compounds with reduced ring size for use in diagnosing and treating melanoma, including metastatic melanoma and methods related to same” (STC.UNM, priority 2009, dated 2016).

Data set [1] can be described thus: In vitro serum stability in mouse serum. Format: in vitro ADME. The note with it: 37° C., 24 h. On the procedure:
After the incubation, 10 μL of 0.5% EDTA aqueous solution was added into the reaction vial to scavenge potential unbound ^111In^3+ ions. The radiolabeled peptide was purified to single species by Waters RP-HPLC (Milford, Mass.) on a Grace Vydac C-18 reverse phase analytical column (Deerfield, Ill.) using a 20-minute gradient of 18-28% acetonitrile in 20 mM HCl aqueous solution with a flow rate of 1.0 mL/min. Purified peptide sample was purged with N2 gas for 20 minutes to remove the acetonitrile. The pH of final solution was adjusted to 7.4 with 0.1 N NaOH and sterile normal saline for animal studies.
Briefly, 50 μL of ^111InCl3 (37-74 MBq in 0.05 M HCl aqueous solution), 10 μL of 1 mg/mL peptide aqueous solution and 400 μL of 0.5 M NH4OAc (pH 4.5) were added into a reaction vial and incubated at 75° C. for 45 mins. After the incubation, 10 μL of 0.5% EDTA (ethylenediaminetetraacetic acid) aqueous solution was added into the reaction vial to scavenge potential unbound ^111In^3+ ions. The radiolabeled complexes were purified to single species by Waters RP-HPLC (Milford, Mass.) on a Grace Vydac C-18 reverse phase analytical column (Deerfield, Ill.) using the following gradient at a 1 mL/min flowrate. The mobile phase consisted of solvent A (20 mM HCl aqueous solution) and solvent B (100% CH3CN). The gradient was initiated and kept at 82:18 A/B for 3 mins followed by a linear gradient of 82:18 A/B to 72:28 A/B over 20 mins. Then, the gradient was changed from 72:28 A/B to 10:90 A/B over 3 mins followed by an additional 5 mins at 10:90 A/B. Thereafter, the gradient was changed from 10:90 AB to 82:18 AB over 3 mins. Each purified peptide sample was purged with N2 gas for 20 mins to remove the acetonitrile. The pH of the final solution was adjusted to 7.4 with 0.1 N NaOH and sterile saline for animal studies. In vitro serum stability of ^111In-DOTA-GGNle-CycMSHhex and ^111In-DOTA-GENle-CycMSHhex were determined by incubation in mouse serum at 37° C. for 24 h and monitored for degradation by RP-HPLC.

The nature of data set [2]: Biodistribution in B16/F1 melanoma-bearing C57 mice. It counts as in vivo. The note with it: female, C57, mouse, iv, 0.037 MBq, total radioactivity; for tissue to tissue ratio at 4 h: 4 h post-injection. On the procedure:
(§1) All the animal studies were conducted in compliance with Institutional Animal Care and Use Committee approval. The mice were housed five animals per cage in sterile micro-isolator cages in a temperature- and humidity-controlled room with a 12-h light/12-h dark schedule. […] C57 mice were subcutaneously inoculated on the right flank with 1×10^6 B16/F1 cells. The weight of tumors reached approximately 0.2 g 10 days post cell inoculation. […] Groups of 5 mice were sacrificed at 0.5, 2, 4 and 24 h post-injection, and tumors and organs of interest were harvested, weighed and counted. Blood values were taken as 6.5% of the whole-body weight. […] The mice were sacrificed at 2 h post-injection. The tumor and organs of interest were harvested, weighed and counted.
(§2) All animal studies were conducted in compliance with Institutional Animal Care and Use Committee approval. The pharmacokinetics of ^111In-DOTA-GGNle-CycMSHhex and ^111In-DOTA-GENle-CycMSHhex were determined in B16/F1 melanoma-bearing C57 female mice (Harlan, Indianapolis, Ind.). The C57 mice were subcutaneously inoculated with 1×10^6 B16/F1 cells on the right flank for each mouse to generate B16/F1 melanomas. Ten days post inoculation, the tumor weights reached approximately 0.2 g. Each melanoma-bearing mouse was injected with 0.037 MBq of ^111In-DOTA-GGNle-CycMSHhex or ^111In-DOTA-GENle-CycMSHhex via the tail vein. Groups of 5 mice were sacrificed at 0.5, 2, 4 and 24 h post-injection, and tumors and organs of interest were harvested, weighed and counted. Blood values were taken as 6.5% of the whole-body weight. The specificities of the tumor uptake of ^111In-DOTA-GGNle-CycMSHhex and ^111In-DOTA-GENle-CycMSHhex were determined by co-injecting 10 μg (6.07 nmol) of unlabeled NDP-MSH which is a linear α-MSH peptide analogue with picomolar MC1 receptor binding affinity.

Data set [3] concerns B16/F1 melanoma. Described as above. As to conditions: for tumor uptake blocked by NDP-MSH co-injection: 10 μg (6.07 nmol) NDP-MSH. Format: in vivo. How it is done: as §1, §2
Data set [4] in a line: Metabolites in urine and melanoma by RP-HPLC. It counts as in vivo, C57 mice. As to conditions: 2 h post-injection. How it is done:
The mouse used for the imaging study (2 h post-injection) described above was euthanized and the urine was collected for identifying the metabolites. The urinary sample was centrifuged at 16,000 g for 5 min prior to the HPLC analysis. The radioactive metabolite in the urine was analyzed by injecting aliquots of urine into the HPLC. A 20-minute gradient of 18-28% acetonitrile/20 mM HCl was used for the urine analysis.
Both melanoma and urine were collected from the mouse used for SPECT/CT imaging to analyze the metabolites of ^111In-DOTA-GGNle-CycMSHhex in melanoma and urine. The tumor was homogenized by a VWR homogenizer for 5 mins. Equal volume of ethanol was added into the tumor sample. The tumor sample was vortexed and then centrifuged at 16,000 g for 5 mins. The supernatant was transferred into a glass test tube and purged with N2 gas for 20 mins to remove the ethanol. Aliquots of the supernatant were injected into HPLC. The urinary sample was directly centrifuged at 16,000 g for 5 mins prior to the HPLC analysis. Thereafter, aliquots of the urine were injected into HPLC. The HPLC gradient described above was used for the analyses of metabolites.

The target in data set [5] is MC1 receptor (Homo sapiens, UniProt Q01726). The note with it: references 25, 26; cited from earlier work.
Sequence of MC1 receptor (Homo sapiens, UniProt Q01726) (Q01726 whole entry): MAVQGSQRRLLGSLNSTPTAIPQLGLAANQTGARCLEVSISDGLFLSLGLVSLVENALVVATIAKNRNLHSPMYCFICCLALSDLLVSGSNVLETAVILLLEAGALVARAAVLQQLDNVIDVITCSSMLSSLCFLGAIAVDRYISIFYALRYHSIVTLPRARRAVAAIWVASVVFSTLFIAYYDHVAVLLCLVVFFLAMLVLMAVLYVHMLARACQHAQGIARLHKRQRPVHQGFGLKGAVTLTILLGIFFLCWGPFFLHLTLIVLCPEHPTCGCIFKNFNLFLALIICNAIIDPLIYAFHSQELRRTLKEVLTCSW
The target of data set [6] is T1, MC1 receptor (Mus musculus, UniProt Q01727). The note with it: cited from earlier work.
T1 sequence (Q01727 whole entry): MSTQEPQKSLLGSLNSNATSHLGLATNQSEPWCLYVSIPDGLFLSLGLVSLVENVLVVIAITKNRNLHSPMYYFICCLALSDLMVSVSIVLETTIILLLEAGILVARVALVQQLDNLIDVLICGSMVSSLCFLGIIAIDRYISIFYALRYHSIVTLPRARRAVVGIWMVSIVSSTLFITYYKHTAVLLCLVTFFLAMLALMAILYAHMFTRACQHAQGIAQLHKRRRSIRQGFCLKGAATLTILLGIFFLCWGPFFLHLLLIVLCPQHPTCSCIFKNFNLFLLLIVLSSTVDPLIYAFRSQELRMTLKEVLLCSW
In data set [7] the test system is B16/F1 melanoma. As to conditions: references 19, 20; cited from earlier work.
Data set [8] concerns B16/F1 melanoma. As to conditions: mouse, in vivo; cited from earlier work.
Data set [9] has as its target T1, MC1 receptor. Put plainly: In vitro competitive binding assay with ^125I-Tyr^2-NDP-MSH in B16/F1 melanoma cells. Further details: host or cells: B16/F1 murine melanoma cells; species or system murine. How it is done: B16/F1 cells were harvested and seeded into a 24-well cell culture plate (5×10^5 cells/well) and incubated at 37° C. overnight. […] The reaction medium was aspirated after the incubation. The cells were rinsed twice with 0.5 mL of ice-cold pH 7.4, 0.2% BSA/0.01 M phosphate buffered saline (PBS) and lysed in 0.5 mL of 1 N NaOH for 5 minutes. The activities associated with cells were measured in a Wallac 1480 automated gamma counter (PerkinElmer, N.J.). The IC50 value of the peptide was calculated using Prism software (GraphPad Software, La Jolla, Calif.).
B16/F1 cells in 24-well cell culture plates (5×10^5 cells/well) were incubated at room temperature (25° C.) for 2 h with approximately 60,000 cpm of ^125I-Tyr^2-NDP-MSH in the presence of 10^−12 to 10^−5 M of each peptide in 0.3 mL of binding medium {Dulbecco's Modified Eagle's Medium with 25 mM N-(2-hydroxyethyl)-piperazine-N′-(2-ethanesulfonic acid), pH 7.4, 0.2% bovine serum albumin (BSA), 0.3 mM 1,10-phenathroline}. The medium was aspirated after the incubation. […] The activities associated with cells were measured in a Wallac 1480 automated gamma counter (PerkinElmer, Waltham, Mass.). The IC50 value of each peptide was calculated using Prism software (GraphPad Software, La Jolla, Calif.).

Positions of bridges follow the written chain, without caps; N, C: chain ends. Non-standard residues stand in square brackets, D forms with d. Residues, ends and D or L forms follow the SMILES beside them. No end group written: not given here. *: point of attachment. DOTA = O=C(O)CN1CCN(CC(=O)O)CCN(CC(=O)*)CCN(CC(=O)O)CC1; Nle = CCCC[C@H](N)C(=O)O

Regarding `CCCC[C@H](NC(=O)CNC(=O)CNC(=O)CN1CCN(CC(=O)O)CCN(CC(=O)O)CCN(CC(=O)O)CC1)C(=O)N[C@H]1CC(=O)NCCCC[C@@H](C(N)=O)NC(=O)[C@H](Cc2c[nH]c3ccccc23)NC(=O)[C@H](CCCNC(=N)N)NC(=O)[C@@H](Cc2ccccc2)NC(=O)[C@H](Cc2c[nH]cn2)NC1=O` [^111In-DOTA-GGNle-CycMSHhex, metal not drawn] ({DOTA}-GG[Nle]DH[dF]RWK-NH2; lactam 4-9), the “serum stability by RP-HPLC” value in data set [1] is listed as “stable”. The tissue uptake at 2 h in data set [2] (liver, 2 h post-injection, read-out: Liver uptake) is under 0.61 %ID/g. In addition, the tissue to tissue ratio at 4 h in data set [2] (tumor and kidney, tumor/kidney uptake ratio, times that of ^111In-DOTA-Nle-CycMSHhex) came to 1.61. Besides, the tissue to tissue ratio at 2 h in data set [2] (tumor and kidneys, tumor/kidney uptake ratio, times that of ^111In-DOTA-Nle-CycMSHhex, 2 h post-injection) was 1.37. The tissue to tissue ratio at 4 h in data set [2] (tumor and liver, tumor/liver uptake ratio, times that of ^111In-DOTA-Nle-CycMSHhex) is 3.13. Besides, in the data set with B16/F1 melanoma [3] (2 h post-injection), the “tumor uptake blocked by NDP-MSH co-injection” value is on record as “Approximately 98%”, the Kidneys uptake is listed as 6.84±0.92 % ID/g, the Tumor uptake was determined as 19.05±5.04 % ID/g and the Tumor/Skin uptake ratio is recorded as 70.56. The “tumor uptake, times that of ^111In-DOTA-GENle-CycMSHhex” value (“tumor uptake, times that” below) in the data set with B16/F1 melanoma [3] (2 h post-injection) is 2.5 times. Also, in the data set with B16/F1 melanoma [3] (0.5 h post-injection), the Kidneys uptake stood at 15.19±2.75 % ID/g; the Tumor uptake was determined as 18.39±2.22 % ID/g; the Tumor/Skin uptake ratio came to 8.51; the “tumor uptake, times that” value was 2 times. Also, in the data set with B16/F1 melanoma [3] (4 h post-injection), the Tumor uptake came to 18.6±3.56 % ID/g; the Tumor/Liver uptake ratio was determined as 31.0; the Tumor/Skin uptake ratio is listed as 68.89; the “tumor uptake, times that” value is listed as 3 times. In addition, in the data set on B16/F1 melanoma [3] (24 h post-injection), the Tumor uptake came to 6.77±0.84 % ID/g and the Tumor/Skin uptake ratio came to 26.04. Also, in [4] (tumor), the “melanoma metabolites by HPLC” value was “remained intact”. Moreover, in data set [4] (urine), the “urinary metabolites by HPLC” value is on record as “remained intact”.
“Ac-Nle-c[Asp-His-DPhe-Arg-Trp-Lys(CONH2)] [MT-II]”: on MC1 receptor [5], the “MC1 receptor binding affinity compared with the native α-MSH peptide” value is listed as “higher” and the “MC1 receptor dissociation rate compared with the native α-MSH peptide” value was “slower”.
Regarding `CCCC[C@H](NC(=O)[C@H](CCC(=O)O)NC(=O)CNC(=O)CN1CCN(CC(=O)O)CCN(CC(=O)O)CCN(CC(=O)O)CC1)C(=O)N[C@H]1CC(=O)NCCCC[C@@H](C(N)=O)NC(=O)[C@H](Cc2c[nH]c3ccccc23)NC(=O)[C@H](CCCNC(=N)N)NC(=O)[C@@H](Cc2ccccc2)NC(=O)[C@H](Cc2c[nH]cn2)NC1=O` [^111In-DOTA-GENle-CycMSHhex, metal not drawn] ({DOTA}-GE[Nle]DH[dF]RWK-NH2; lactam 4-9), the “serum stability by RP-HPLC” value in data set [1] was “stable”. Further, the “tumor uptake blocked by NDP-MSH co-injection” value in the data set with B16/F1 melanoma [3] (2 h post-injection) was 95.6%. The results for the Kidneys uptake with B16/F1 melanoma [3] (0.5 h post-injection) and in the data set with B16/F1 melanoma [3] (2 h post-injection) were 9.06±2.20 % ID/g and 5.54±0.63 % ID/g, respectively. In addition, the Tumor/Skin uptake ratio is recorded as 7.21 in the data set on B16/F1 melanoma [3] (0.5 h post-injection), 24.30 in the data set with B16/F1 melanoma [3] (2 h post-injection), 44.17 in the data set on B16/F1 melanoma [3] (4 h post-injection) and 27.50 in the data set with B16/F1 melanoma [3] (24 h post-injection).
Take [Nle^4, D-Phe^7]-α-MSH [NDP-MSH]: at MC1 receptor [6], the “affinity for the MC1 receptor” value is listed as “picomolar”.
On to “{DOTA}-GEK[Nle]EH[dF]RWGRPVD (lactam 3-14) [^111In-DOTA-GlyGlu-CycMSH, reference compound]”, for which, in the data set with B16/F1 melanoma [7], the “visualization of flank primary and pulmonary metastatic melanoma lesions by SPECT/CT” value is listed as “clearly visualized”. Besides, in the data set with B16/F1 melanoma [8], the “tumor radioactivity at 2 h remaining in tumors at 24 h” value is 22.8%.
On to `CCCC[C@H](NC(=O)CN1CCN(CC(=O)O)CCN(CC(=O)O)CCN(CC(=O)O)CC1)C(=O)NCC(=O)N[C@@H](CCC(=O)O)C(=O)N[C@H]1CC(=O)NCCCC[C@@H](C(N)=O)NC(=O)[C@H](Cc2c[nH]c3ccccc23)NC(=O)[C@H](CCCNC(=N)N)NC(=O)[C@@H](Cc2ccccc2)NC(=O)[C@H](Cc2c[nH]cn2)NC1=O` [DOTA-NleGE-CycMSHhex] ({DOTA}-[Nle]GEDH[dF]RWK-NH2; lactam 4-9), for which the “lower receptor binding affinity than DOTA-GGNle-CycMSHhex and DOTA-GENle-CycMSHhex” value at MC1 receptor [9] is “at least 78 fold”.
